PMC11944851, “Computationally Guided Design, Synthesis, and Evaluation of Novel Non-Hydroxamic Histone Deacetylase Inhibitors, Based on N-Trifluoroacetamide as a Zinc-Binding Group, Against Breast Cancer” (Pharmaceuticals, 2025)
Where two headings read alike, the source gives them in different places.

Tests used:
[1] = system: HDACs in nuclear extract of HeLa cells; assay: HDAC inhibitory activity, fluorescence assay in HeLa nuclear extract; assay type: biochemical
Procedure: In this in vitro assay, residual HDAC activity was measured in a nuclear extract of HeLa cells after incubation with the different compounds at 5 µM, followed by single endpoint fluorescence measurement.
To obtain nuclear extracts, HeLa cell cultures were used. The HeLa cell line was cultured in high-glucose DMEM medium with phenol red, supplemented with 8% fetal bovine serum (Gibco, Waltham, MA, USA), 1% Penicillin/Streptomycin (10,000 U/mL, Gibco, Waltham, MA, USA), and 1% non-essential amino acids (Gibco, Waltham, MA, USA). Cells were maintained in an incubator at 37 °C and 5% CO2 atmosphere. To obtain the required number of cells for nuclear extraction, two 150 cm^2 flasks were cultured, resulting in approximately 2 × 10^7 cells. The cells were trypsinized with a 10% V/V trypsin solution (Gibco, Waltham, MA, USA) and subsequently centrifuged at 3000 rpm for 10 min for counting with trypan blue using an automatic counter (Mart-Counter 3000, Corning, NY, USA). Solutions for nuclear material extraction were prepared following the protocol of the commercial kit Abcam Ab156064 (ABCAM, Milpitas, CA, USA). For the lysis buffer (solution A), 10 mL was prepared with Tris-HCl (10 mM) pH 7.5, NaCl (10 mM), MgCl2 (15 mM), sucrose (250 mM), EGTA (0.1 mM), and NP-40 (0.5%). For the sucrose buffer (solution B), 15 mL was prepared with Tris-HCl (10 mM) pH 7.5, NaCl (10 mM), MgCl2 (3 mM), and sucrose (30%). For the extraction buffer (solution C), 10 mL was prepared with NaCl (420 mM), EGTA (0.1 mM), HEPES-KOH (50 mM, pH 7.5), EDTA Na₂ (0.5 mM), and glycerol (10%). For every 1 × 10^7 of cells, 1 mL of solution A (lysis buffer) was added and vortexed for 10 s, followed by a 15 min rest in an ice bath. Then, 4 mL of solution B (sucrose buffer) was added, and the mixture was centrifuged at 1300× g for 10 min at 4 °C. The supernatant was discarded, and the nuclear pellet was washed with a solution of NaCl (10 mM) and Tris-HCl (10 mM) at pH 7.5. The nuclear pellet was then resuspended in 100 µL of solution C (extraction buffer), sonicated for 30 s, and placed in an ice bath for 30 min. The nuclear solution was centrifuged at 20,000× g for 10 min and the supernatant, containing the nuclear extract, was collected. The nuclear extracts were stored at −80 °C. The Lowry colorimetric assay was used to standardize the protein concentration of the obtained nuclear extracts. A sample of the nuclear extract and a sample of bovine serum albumin as a control were each added to 1 mL of Lowry reagent (sodium tartrate 0.1 M, sodium bicarbonate 0.1 M, CuSO4 0.01 M, and 50% Folin reagent).
Prior to the experiment, a calibration curve was performed to ensure linearity.
Reactions were prepared in a 96-well plate following the specified volumes and conditions. Initially, the appropriate volume of deionized water (ddH2O) and 10 μL of buffer were added to each well. Subsequently, 5 μL of either acetylated or deacetylated substrate was added, depending on the experimental group.
Inhibition controls included Trichostatin A (TSA) at 1 mM, with 2 μL added to achieve a final concentration of 20 μM. The reaction was initiated by adding 4 μL of HeLa nuclear extract to each well, except for the developer control wells. The plate was incubated at 37 °C for 30 min, followed by the addition of 10 μL of developer solution. After a second incubation at 37 °C for another 30 min, fluorescence was measured using a plate reader with an excitation/emission of 350–380 nm/440–460 nm.
Remaining HDAC activity was estimated using the calibration curve, where the fluorescence units (AFU) obtained for each condition were converted into deacetylated substrate concentration (μM).

[2] = MTT cell viability, non-tumorigenic MCF-10A; assay type: cell-based; details: human, MCF-10A non-cancerous mammary epithelial cells, MTT, non-tumorigenic breast cells, read-out: Cytotoxic Activity IC50 MCF-10A
Procedure: (§1) For the culture of normal breast epithelial cells MCF-10A, DMEM-F12 medium without phenol red was used, supplemented with 5% fetal bovine serum (Gibco, Waltham, MA, USA), 1% Penicillin/Streptomycin (10,000 U/mL, Gibco, Waltham, MA, USA), 1% non-essential amino acids (Gibco, Waltham, MA, USA), 0.33% hydrocortisone, 0.2% insulin (100 U/mL), and 0.002% EGF (1 µg/µL). For the assays with MCF-10A cells, 2.5 × 10^3 cells/well were seeded in 100 µL of medium.
(§2) The 3-(4,5-dimethylthiazol-2-yl)-2,5-diphenyl tetrazolium bromide assay was used to evaluate the effect of the designed compounds on cell viability. These compounds were initially dissolved in DMSO (dimethyl sulfoxide) as stock solutions at 150 mM. Cells were seeded in 96-well plates (NEST Biotechnology Co., Wuxi, China) at different densities, depending on the cell line used and the incubation time with the treatments, and left in 100 µL of the corresponding culture medium for 24 h to allow for adhesion. Then, the cells were treated with different concentrations of each compound, maintaining a maximum of 0.46% DMSO. After 48 or 72 h of treatment, 20 µL of MTT (5 mg/mL) in phosphate-buffered saline (PBS; Sigma) solution was added to each well and incubated again for 3 h. Subsequently, the blue formazan compound derived from the MTT was dissolved in 100 µL of DMSO. The optical density of the wells was measured at 550 nm using an ELISA reader (MultiSkan, Thermo Scientific, Waltham, MA, USA). Finally, cell viability was expressed as a percentage relative to the negative control (untreated and 0.46% DMSO).
(§3) Cytotoxicity data were analyzed using one-way ANOVA to evaluate differences between the treated groups and the negative control (DMSO). Multiple comparisons with the negative control were performed using Dunnett’s post hoc test. Statistical analysis was performed using GraphPad Prism 10 software (free trial, https://www.graphpad.com/demos/, accessed on 26 June 2024). For the calculation of the IC50s of the compounds, cytotoxicity responses were fitted to a variable slope sigmoidal equation (log(inhibitor) vs. normalized response). A p < 0.05 value was considered statistically significant.

[3] = system: MCF-7 cells; assay: MTT cell viability, MCF-7; assay type: cell-based; details: for IC50: MTT, read-out: Cytotoxic Activity IC50 MCF-7; for Selectivity Index MCF-10A/ MCF-7: ratio of IC50
Procedure: (§4) The BC cell lines MCF-7 and MDA-MB-231 were cultured in high-glucose DMEM medium with phenol red, supplemented with 7% and 10% fetal bovine serum (Gibco, Waltham, MA, USA), respectively, 1% Penicillin/Streptomycin (10,000 U/mL, Gibco, Waltham, MA, USA), and 1% non-essential amino acids (Gibco, Waltham, MA, USA). Cell cultures were maintained in a temperature-controlled incubator at 37 °C and 5% CO2 atmosphere. For the 72 h assays with MDA-MB-231, 1.8 x 10³ cells/well were seeded in 100 µL of medium.
as §2, §3

[4] = system: MDA-MB-231 cells; assay: MTT cell viability, MDA-MB-231; assay type: cell-based; details: for IC50: MTT, read-out: Cytotoxic Activity IC50 MDA-MB-231; for Cytotoxic activity, initial viability experiment: MDA-MB-231, 72 h of treatment; for Selectivity Index MCF-10A/ MDA-MB-231: ratio of IC50
Procedure: as §4, §2, §3

[5] = system: MCF-10A cells; assay: MTT cell viability, non-tumorigenic MCF-10A; assay type: cell-based; details: 72 h
Procedure: as §1, §2, §3

[6] = 5 µM, single endpoint fluorescence
[7] = Homo sapiens, MDA-MB-231, 72 h, 72 h

Row | Compound | Effect on HDAC activity [1, 6] | IC50 ([3]; Homo sapiens, MCF7, 72 h, 72 h) [µM] | Selectivity Index MCF-10A/ MCF-7 [3] | IC50 [4, 7] [µM] | Cytotoxic activity, initial viability experiment [4] | Selectivity Index MCF-10A/ MDA-MB-231 [4] | other results
1 | CC(=O)NCCCCCC(=O)Nc1ccccc1O [5a, 6-Acetamido-N-(2-hydroxyphenyl) Hexanamide] | slight decrease in HDACs activity | – | – | – | – | – | –
2 | CC(=O)NCCCCCC(=O)Nc1ccc(O)cc1 [5b, 6-Acetamido-N-(4-hydroxyphenyl) Hexanamide] | – | 230 | 0.74 | 121 ± 26.7 | significant cytotoxic activity | 1.39 | IC50 at 72 h [2]: 169 ± 20.6 µM; IC50 ([3]; 72 h): 228 ± 52.9 µM
3 | O=C(CCCCCNC(=O)C(F)(F)F)Nc1ccccc1O [6a, N-(2-hydroxyphenyl)-6-(2,2,2-trifluoroacetamido) Hexanamide] | slight decrease in HDACs activity | 254 ± 34.4 | >2.36 | 226 | significant cytotoxic activity | >2.66 | fold less toxic than SAHA in MCF-10A cells [5]: ≈ 200 fold; IC50 ([4]; 72 h): 225 ± 17.6 µM
4 | O=C(CCCCCNC(=O)C(F)(F)F)Nc1ccc(O)cc1 [6b, N-(4-hydroxyphenyl)-6-(2,2,2-trifluoroacetamido) Hexanamide] | – | 45.7 ± 6.91 | 3.38 | 76.7 | significant cytotoxic activity | 2.01 | fold less toxic than SAHA in MCF-10A cells [5]: more than 50 fold; IC50 at 72 h [2]: 155 ± 21.6 µM; fold more active than 5b in ER-positive cells ([3]; 72 h): 5 fold; fold more potent than 5b in triple-negative breast cancer cells ([4]; 72 h): 1.5 fold; IC50 ([4]; 72 h): 76.7 ± 8.52 µM
5 | O=C(CCCCCCC(=O)Nc1ccccc1)NO [SAHA, suberoylanilide hydroxamic acid, reference compound] | reduced HDAC activity almost completely | – | – | – | – | – | –
6 | CC(=O)NCCCCCC(=O)O [compound 2, 6-Acetamidohexanoic Acid] | slight decrease in HDACs activity | – | – | – | – | – | –
7 | O=C(O)CCCCCNC(=O)C(F)(F)F [compound 3, 6-(2,2,2-trifluoroacetamido) Hexanoic Acid] | slight decrease in HDACs activity | – | – | – | – | – | –
8 | Trichostatin A [TSA, reference compound] | – | – | – | – | – | – | Effect on HDAC activity ([1]; TSA 20 µM): reduced HDAC activity almost completely
